Legend:
Format in all cases: cell-based
[1] = system: cardiac fibroblast RAT-iCell-C002; test: Anti-fibrosis activity test: inhibition of proliferation of cardiac fibroblast RAT-iCell-C002 (CCK-8); details: Cardiac fibroblast, 48 h
Procedure, shortened: (§1)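 Cells seeded at 2×10^4 cells/mL, adhered 24 h, then exposed to compound concentrations in triplicate for 48 h at 37° C, 5% CO2. CCK-8 added for 2 h, absorbance at 450 nm; inhibition = (1−Ai/Ao)×100% versus blank control, IC50 calculated.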

[2] = system: human embryonic lung fibroblast IMR-90; test: Anti-fibrosis activity test: inhibition of proliferation of human embryonic lung fibroblast IMR-90 (CCK-8)
Procedure, shortened: as §1

[3] = system: human fibrosarcoma cells HT-1080; test: Anti-fibrosis activity test: inhibition of proliferation of human fibrosarcoma cells HT-1080 (CCK-8); details: Homo sapiens, HT-1080, 48 h
Procedure, shortened: as §1

[4] = system: human lung fibroblasts HFL1; test: Anti-fibrosis activity test: inhibition of proliferation of human lung fibroblasts HFL1 (CCK-8); details: Homo sapiens, HFL1, 48 h
Procedure, shortened: as §1

[5] = system: BHK-21 cells; test: Anti-fibrosis activity test: inhibition of BHK-21 cell proliferation (CCK-8); details: Mesocricetus auratus, BHK-21, 48 h
Procedure, shortened: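 Read-out: CCK-8 absorbance at 450 nm after 2 h, giving proliferation inhibition (1−Ai/Ao)×100% versus blank control, from which IC50 was derived. Cells had been treated with compounds for 48 h after 24 h adherence at 37° C. Pirfenidone served as positive control.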

[6] = system: mouse macrophages (RAW264.7); test: Lipopolysaccharide-induced NO secretion in macrophages (Griess); details: Mus musculus, RAW264.7, 24 h, RAW264.7, LPS 1 μg/ml, a/b isomers given as first/second symbol, read-out: IC50 (μM), inhibition of lipopolysaccharide-induced NO secretion in macrophages
Experimental: The effects of the compounds of the present application on the lipopolysaccharide-induced NO secretion in macrophage was tested Principle: Anti-inflammatory drug activity screening is to detect the inhibitory effect of compounds on NO production in the mouse macrophages (RAW264.7). When immune cells are stimulated by microbial endotoxin, inflammatory mediators, etc., a large amount of induced NO synthase (iNOS) is produced, and thus NO is generated for immune response. Accordingly, the inhibition of NO production can serve as a direct indicator of the anti-inflammatory activity of the compound. The activity of the compound to inhibit NO production at the cellular level is directly evaluated in the abovementioned test model, thereby reflecting the anti-inflammatory activity of the compound. In this experiment, the content of NO in the medium was detected by Gris kit (Molecular probes, G-7921). Macrophages (Raw264.7) were cultured in DMEM medium containing 10% fetal bovine serum, with the cell concentration adjusted. The cells were seeded in 24-well cell culture plates, cultured in an incubator, and the test samples in different concentrations were added every other day. The blank medium was used as a blank control, and commercially available indomethacin and resveratrol were employed as positive controls. After the addition of lipopolysaccharide (LPS, 1 μg/ml), incubation was performed for 24 hours. Then the supernatant culture solution was taken, to […] reagent was added, and the absorbance value was measured by a microplate reader at 548 nm. Inhibition rate=([…])×100%.

[7] = system: human hepatic stellate cells LX-2; test: Anti-fibrosis activity test: inhibition of proliferation of human hepatic stellate cells LX-2 (CCK-8); details: Homo sapiens, 48 h
Procedure, shortened: as §1

[8] = system: human dermal fibroblasts CCC-ESF-1; test: Anti-fibrosis activity test: inhibition of proliferation of human dermal fibroblasts CCC-ESF-1 (CCK-8); details: Fibroblast
Procedure, shortened: as §1

[9] = Homo sapiens, IMR-90 cells, 48 h, CCK-8
[10] = Homo sapiens, CCC-ESF-1 cells, 48 h, CCK-8
[11] = cardiac fibroblast RAT-iCell-C002, CCK-8, 48 hours
[12] = human embryonic lung fibroblast IMR-90, CCK-8, 48 hours
[13] = human fibrosarcoma cells HT-1080, CCK-8, 48 hours
[14] = human lung fibroblasts HFL1, CCK-8, 48 hours
[15] = CCK-8, 48 hours after administration
[16] = human hepatic stellate cells LX-2, CCK-8, 48 hours
[17] = human dermal fibroblasts CCC-ESF-1, CCK-8, 48 hours

SMILES | IC50 ([1]; RAT-iCell-C002 cells, CCK-8) [mM] | IC50 [2, 9] [mM] | IC50 ([3]; HT-1080 cells, 48 h, CCK-8) [mM] | IC50 ([4]; HFL1 cells, 48 h, CCK-8) [mM] | IC50 ([5]; 48 h, CCK-8) [mM] | IC50 [6] [µM] | IC50 ([7]; LX-2, 48 h, LX-2 cells, CCK-8) [mM] | IC50 [8, 10] [mM] | IC50 [1, 11] [mM] | IC50 [2, 12] [mM] | IC50 [3, 13] [mM] | IC50 [4, 14] [mM] | IC50 [5, 15] [mM] | IC50 [7, 16] [mM] | IC50 [8, 17] [mM]
CCCOCCn1c2c(c(=O)c3ccccc31)-c1cccn1C2=O [Compound 790a, 6-(2-Propoxyethyl)-5H-pyrrolizino[2,1-b]quinoline-5,11(6H)-dione] | 0.05 to 5 | 0.05 to 5 | 0.05 to 5 | 0.05 to 5 | 0.05 to 5 | 1 to 10 | 0.05 to 5 | 0.05 to 5 | – | – | – | – | – | – | –
O=C1c2c(nc3cc(N4CCNCC4)c(F)cc3c2OCCO)-c2cccn21 [Compound 348b, 7-fluoro-9-(2-hydroxyethoxy)-6-(piperazin-1-yl)-10H-pyrrolizino[1,2-b]quinolin-10-one] | – | – | – | – | – | 1 to 10 | – | – | 0.05 to 5 | 0.05 to 5 | 0.05 to 5 | 0.05 to 5 | 0.05 to 5 | < 0.05 | 0.05 to 5
O=C1c2c(n(C3CC3)c3ccc(F)cc3c2=O)-c2cccn21 [Compound 144a, 4-Cyclopropyl-7-fluoro-9H-pyrrolizino[1,2-b]quinoline-9,10(4H)-dione] | – | – | – | – | – | 1 to 10 | – | – | 0.05 to 5 | 0.05 to 5 | 0.05 to 5 | 0.05 to 5 | 0.05 to 5 | < 0.05 | 0.05 to 5
O=C(Oc1c2c(nc3cc(N4CCNCC4)c(F)cc13)-c1cccn1C2=O)c1ccco1 [Compound 343b, 7-fluoro-10-oxo-6-(piperazin-1-yl)-10H-pyrrolizino[1,2-b]quinolin-9-ylfuran-2-carboxylate] | – | – | – | – | – | 1 to 10 | – | – | 0.05 to 5 | 0.05 to 5 | 0.05 to 5 | 0.05 to 5 | 0.05 to 5 | 0.05 to 5 | 0.05 to 5
Cc1cc(C)c2c(O)c3c(nc2c1)C(=O)n1cccc1-3 [Compound 782b, 11-hydroxy-8,10-dimethyl-5H-pyrrolizino[2,1-b]quinolin-5-one] | 0.05 to 5 | 0.05 to 5 | 0.05 to 5 | 0.05 to 5 | 0.05 to 5 | 1 to 10 | 0.05 to 5 | 0.05 to 5 | – | – | – | – | – | – | –
O=C1c2c([nH]c3cc(N4CCNCC4)c(Cl)cc3c2=O)-c2cccn21 [Compound 373a, 7-Chloro-6-(piperazin-1-yl)-9H-pyrrolizino[1,2-b]quinoline-9,10(4H)-dione] | – | – | – | – | – | 0.1 to 1 | – | – | 0.05 to 5 | 0.05 to 5 | 0.05 to 5 | 0.05 to 5 | 0.05 to 5 | 0.05 to 5 | 0.05 to 5
O=C1c2c(nc3c(Cl)cccc3c2OCc2ccc(Cl)cc2)-c2cccn21 [Compound 451b, 5-chloro-9-((4-chlorobenzyl)oxy)-10H-pyrrolizino[1,2-b]quinolin-10-one] | – | – | – | – | – | 1 to 10 | – | – | 0.05 to 5 | 0.05 to 5 | 0.05 to 5 | < 0.05 | 0.05 to 5 | 0.05 to 5 | 0.05 to 5
C=CCn1c2c(c(=O)c3cc(F)c(N4CCNCC4)cc31)C(=O)n1cccc1-2 [Compound 349a, 4-Allyl-7-fluoro-6-(piperazin-1-yl)-9H-pyrrolizino[1,2-b]quinoline-9,10(4H)-dione] | – | – | – | – | – | 1 to 10 | – | – | 0.05 to 5 | 0.05 to 5 | 0.05 to 5 | 0.05 to 5 | 0.05 to 5 | 0.05 to 5 | 0.05 to 5
O=C1c2c(n(C3CC3)c3cc(N4CCNCC4)c(F)cc3c2=O)-c2cccn21 [Compound 340a, 4-Cyclopropyl-7-fluoro-6-(piperazin-1-yl)-9H-pyrrolizino[1,2-b]quinoline-9,10(4H)-dione] | – | – | – | – | – | 0.1 to 1 | – | – | 0.05 to 5 | 0.05 to 5 | 5 to 20 | 0.05 to 5 | 0.05 to 5 | 0.05 to 5 | 0.05 to 5
O=C1c2c(n(Cc3ccc(F)cc3)c3c(F)c(N4CCNCC4)ccc3c2=O)-c2cccn21 [Compound 485a, 5-Fluoro-4-(4-fluorobenzyl)-6-(piperazin-1-yl)-9H-pyrrolizino[1,2-b]quinoline-9,10(4H)-dione] | – | – | – | – | – | 10 to 50 | – | – | 0.05 to 5 | 0.05 to 5 | 0.05 to 5 | 0.05 to 5 | 0.05 to 5 | 0.05 to 5 | 0.05 to 5
O=C1c2c(nc3cc(N4CCNCC4)c(Cl)cc3c2O)-c2cccn21 [Compound 373b, 7-chloro-9-hydroxy-6-(piperazin-1-yl)-10H-pyrrolizino[1,2-b]quinolin-10-one] | – | – | – | – | – | 1 to 10 | – | – | 0.05 to 5 | 0.05 to 5 | 0.05 to 5 | 0.05 to 5 | 0.05 to 5 | 0.05 to 5 | 0.05 to 5
O=C1c2c(n(-c3ccc(Cl)cc3)c3ccc(OC(F)(F)F)cc3c2=O)-c2cccn21 [Compound 300a, 4-(4-Chlorophenyl)-7-(trifluoromethoxy)-9H-pyrrolizino[1,2-b]quinoline-9,10(4H)-dione] | – | – | – | – | – | 0.1 to 1 | – | – | 0.05 to 5 | 0.05 to 5 | 0.05 to 5 | 0.05 to 5 | 5 to 20 | 0.05 to 5 | 0.05 to 5
Cc1cc(C)c2[nH]c3c(c(=O)c2c1)-c1cccn1C3=O [Compound 780a, 7,9-Dimethyl-5H-pyrrolizino[2,1-b]quinoline-5,11(6H)-dione] | 0.05 to 5 | 0.05 to 5 | 0.05 to 5 | 0.05 to 5 | 0.05 to 5 | 10 to 50 | 0.05 to 5 | 0.05 to 5 | – | – | – | – | – | – | –
O=C1c2nc3ccccc3c(OCc3ccc(-c4ccccc4)cc3)c2-c2cccn21 [Compound 796b, 11-([1,1′-biphenyl]-4-ylmethoxy)-5H-pyrrolizino[2,1-b]quinolin-5-one] | 0.05 to 5 | 0.05 to 5 | 0.05 to 5 | 0.05 to 5 | 0.05 to 5 | 1 to 10 | 0.05 to 5 | 0.05 to 5 | – | – | – | – | – | – | –
O=C1c2c(n(Cc3ccc(F)cc3)c3c(Cl)cccc3c2=O)-c2cccn21 [Compound 481a, 5-Chloro-4-(4-fluorobenzyl)-9H-pyrrolizino[1,2-b]quinoline-9,10(4H)-dione] | – | – | – | – | – | 10 to 50 | – | – | 0.05 to 5 | 0.05 to 5 | 0.05 to 5 | 0.05 to 5 | < 0.05 | 0.05 to 5 | 0.05 to 5
O=C1c2c([nH]c3cccc(F)c3c2=O)-c2cccn21 [Compound 467a, 8-Fluoro-9H-pyrrolizino[1,2-b]quinoline-9,10(4H)-dione] | – | – | – | – | – | 1 to 10 | – | – | 0.05 to 5 | 0.05 to 5 | 0.05 to 5 | 0.05 to 5 | < 0.05 | 0.05 to 5 | 0.05 to 5
O=C1c2c(n(Cc3ccc(Cl)cc3)c3c(F)c(N4CCNCC4)ccc3c2=O)-c2cccn21 [Compound 484a, 4-(4-Chlorobenzyl)-5-fluoro-6-(piperazin-1-yl)-9H-pyrrolizino[1,2-b]quinoline-9,10(4H)-dione] | – | – | – | – | – | 10 to 50 | – | – | 0.05 to 5 | 0.05 to 5 | 0.05 to 5 | 0.05 to 5 | 0.05 to 5 | 0.05 to 5 | 0.05 to 5
O=C1c2c(n(Cc3ccc(Cl)cc3)c3cc(Cl)ccc3c2=O)-c2cccn21 [Compound 508a, 6-Chloro-4-(4-chlorobenzyl)-9H-pyrrolizino[1,2-b]quinoline-9,10(4H)-dione] | – | – | – | – | – | 1 to 10 | – | – | 0.05 to 5 | 0.05 to 5 | 5 to 20 | 0.05 to 5 | 0.05 to 5 | 0.05 to 5 | 0.05 to 5
